The values that follow come from patent publication US8623869B2, “Compounds useful as inhibitors of ATR kinase” (Vertex Pharmaceuticals Incorporated, priority 2010, dated 2014).

pKi: −log10 of the molar value.

For orientation: pKi means the negative decadic logarithm of the Ki, by convention in mol/L.

For this experiment, the target named is T1, full-length ATR (Homo sapiens, UniProt Q13535).
T1 construct: Assays were carried out at 25° C. in the presence of 5 nM full-length ATR
The experiment in a line: ATR Inhibition Assay (radioactive-phosphate incorporation). In kind it is biochemical. Conditions: Ki(app); 5 nM full-length ATR, 10 μM ATP, 800 μM target peptide, 25° C. The protocol:
Compounds were screened for their ability to inhibit ATR kinase using a radioactive-phosphate incorporation assay. Assays were carried out in a mixture of 50 mM Tris/HCl (pH 7.5), 10 mM MgCl2 and 1 mM DTT. Final substrate concentrations were 10 μM [γ-33P]ATP (3mCi 33P ATP/mmol ATP, Perkin Elmer) and 800 μM target peptide (ASELPASQPQPFSAKKK).
Assays were carried out at 25° C. in the presence of 5 nM full-length ATR. An assay stock buffer solution was prepared containing all of the reagents listed above, with the exception of ATP and the test compound of interest. 13.5 μL of the stock solution was placed in a 96 well plate followed by addition of 2 μL of DMSO stock containing serial dilutions of the test compound (typically starting from a final concentration of 15 μM with 3-fold serial dilutions) in duplicate (final DMSO concentration 7%). The plate was pre-incubated for 10 minutes at 25° C. and the reaction initiated by addition of 15 μL [γ-33P]ATP (final concentration 10 μM).
The reaction was stopped after […] by the addition of 30 μL 0.1M phosphoric acid containing 2 mM ATP. A multiscreen phosphocellulose filter 96-well plate (Millipore, Cat no. MAPHN0B50) was pretreated with 100 μL 0.2M phosphoric acid prior to the addition of 45 μL of the stopped assay mixture. The plate was washed with 5×200 μL 0.2M phosphoric acid. After drying, 100 μL Optiphase ‘SuperMix’ liquid scintillation cocktail (Perkin Elmer) was added to the well prior to scintillation counting (1450 Microbeta Liquid Scintillation Counter, Wallac).
After removing mean background values for all of the data points, Ki(app) data were calculated from non-linear regression analysis of the initial rate data using the Prism software package (GraphPad Prism version 3.0cx for Macintosh, GraphPad Software, San Diego Calif., USA).

T1 sequence (Q13535 whole entry): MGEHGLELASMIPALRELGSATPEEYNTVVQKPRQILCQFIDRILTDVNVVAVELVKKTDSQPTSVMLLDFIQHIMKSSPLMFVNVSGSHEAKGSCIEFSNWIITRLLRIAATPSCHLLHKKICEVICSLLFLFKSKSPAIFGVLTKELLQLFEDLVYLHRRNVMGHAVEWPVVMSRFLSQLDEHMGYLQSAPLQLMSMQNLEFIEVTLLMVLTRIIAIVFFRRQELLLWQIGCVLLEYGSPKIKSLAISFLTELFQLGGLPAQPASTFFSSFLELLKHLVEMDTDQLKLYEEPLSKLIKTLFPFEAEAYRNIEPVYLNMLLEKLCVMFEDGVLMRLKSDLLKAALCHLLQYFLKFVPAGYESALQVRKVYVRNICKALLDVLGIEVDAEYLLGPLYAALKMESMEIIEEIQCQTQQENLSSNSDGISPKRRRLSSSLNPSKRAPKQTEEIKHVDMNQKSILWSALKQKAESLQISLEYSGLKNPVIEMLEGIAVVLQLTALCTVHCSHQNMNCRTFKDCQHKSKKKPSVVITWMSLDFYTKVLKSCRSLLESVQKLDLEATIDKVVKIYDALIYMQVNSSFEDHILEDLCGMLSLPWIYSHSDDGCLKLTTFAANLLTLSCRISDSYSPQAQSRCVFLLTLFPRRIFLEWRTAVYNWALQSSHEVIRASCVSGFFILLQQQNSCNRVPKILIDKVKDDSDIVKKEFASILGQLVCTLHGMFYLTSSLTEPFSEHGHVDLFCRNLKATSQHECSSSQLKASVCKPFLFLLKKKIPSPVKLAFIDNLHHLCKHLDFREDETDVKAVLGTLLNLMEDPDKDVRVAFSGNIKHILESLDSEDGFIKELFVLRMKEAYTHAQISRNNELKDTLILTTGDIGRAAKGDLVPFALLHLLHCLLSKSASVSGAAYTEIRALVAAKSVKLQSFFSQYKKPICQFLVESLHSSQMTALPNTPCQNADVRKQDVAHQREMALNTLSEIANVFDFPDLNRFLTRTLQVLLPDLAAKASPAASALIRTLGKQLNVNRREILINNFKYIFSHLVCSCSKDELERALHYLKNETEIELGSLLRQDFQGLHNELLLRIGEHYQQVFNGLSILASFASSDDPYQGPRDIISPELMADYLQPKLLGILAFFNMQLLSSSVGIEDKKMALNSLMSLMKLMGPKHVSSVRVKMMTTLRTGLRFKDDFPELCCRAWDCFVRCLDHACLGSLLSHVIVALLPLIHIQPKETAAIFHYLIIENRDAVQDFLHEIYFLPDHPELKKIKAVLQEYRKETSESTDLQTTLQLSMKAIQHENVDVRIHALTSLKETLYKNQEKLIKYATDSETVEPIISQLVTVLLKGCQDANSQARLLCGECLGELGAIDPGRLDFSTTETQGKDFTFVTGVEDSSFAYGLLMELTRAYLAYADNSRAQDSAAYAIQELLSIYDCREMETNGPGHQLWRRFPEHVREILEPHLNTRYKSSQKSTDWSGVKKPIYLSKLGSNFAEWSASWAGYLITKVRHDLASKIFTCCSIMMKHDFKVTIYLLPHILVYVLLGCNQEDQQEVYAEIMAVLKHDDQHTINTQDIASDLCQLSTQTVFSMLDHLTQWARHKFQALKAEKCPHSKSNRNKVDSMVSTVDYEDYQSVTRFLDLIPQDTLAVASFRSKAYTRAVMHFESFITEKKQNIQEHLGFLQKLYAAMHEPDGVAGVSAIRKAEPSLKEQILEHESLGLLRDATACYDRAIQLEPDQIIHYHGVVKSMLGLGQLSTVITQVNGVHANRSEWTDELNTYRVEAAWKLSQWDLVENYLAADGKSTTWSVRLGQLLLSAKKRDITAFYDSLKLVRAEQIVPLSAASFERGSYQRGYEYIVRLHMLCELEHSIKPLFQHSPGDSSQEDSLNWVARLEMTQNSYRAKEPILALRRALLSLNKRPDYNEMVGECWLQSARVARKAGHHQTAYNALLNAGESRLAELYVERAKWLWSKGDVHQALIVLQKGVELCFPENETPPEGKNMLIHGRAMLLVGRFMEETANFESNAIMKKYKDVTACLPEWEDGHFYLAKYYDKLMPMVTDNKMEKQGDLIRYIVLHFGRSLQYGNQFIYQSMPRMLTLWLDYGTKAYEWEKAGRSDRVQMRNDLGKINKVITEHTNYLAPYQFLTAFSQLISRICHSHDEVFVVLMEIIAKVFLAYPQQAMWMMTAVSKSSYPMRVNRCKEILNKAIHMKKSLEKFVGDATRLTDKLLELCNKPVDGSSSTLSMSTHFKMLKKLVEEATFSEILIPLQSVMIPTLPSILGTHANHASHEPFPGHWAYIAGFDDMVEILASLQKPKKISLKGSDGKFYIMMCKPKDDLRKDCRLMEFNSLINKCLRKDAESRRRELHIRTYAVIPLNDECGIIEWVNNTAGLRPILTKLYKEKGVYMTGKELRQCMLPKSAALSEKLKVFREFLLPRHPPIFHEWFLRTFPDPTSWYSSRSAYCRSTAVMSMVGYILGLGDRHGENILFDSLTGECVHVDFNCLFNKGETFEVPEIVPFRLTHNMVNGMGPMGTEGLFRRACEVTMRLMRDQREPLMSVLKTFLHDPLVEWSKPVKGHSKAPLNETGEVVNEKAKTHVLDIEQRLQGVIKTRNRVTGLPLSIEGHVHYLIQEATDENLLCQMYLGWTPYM

As for `CC(C)S(=O)(=O)c1ccc(-c2cnc3[nH]cc(-c4cccc5[nH]ccc45)c3n2)cc1` [Compound I-12, 7-(1H-indol-4-yl)-2-(4-isopropylsulfonylphenyl)-5H-pyrrolo[2,3-b]pyrazine], the pKi was under 7.30.
To `COc1cccc(-c2c[nH]c3ncc(-c4ccc(S(=O)(=O)C(C)C)cc4)nc23)c1` [Compound I-30, 2-(4-isopropylsulfonylphenyl)-7-(3-methoxyphenyl)-5H-pyrrolo[2,3-b]pyrazine] belongs 7.30 to 8.00; to `CC(C)S(=O)(=O)c1ccc(-c2cnc3[nH]cc(-c4csc5ccccc45)c3n2)cc1` [Compound I-44, 7-(benzothiophen-3-yl)-2-(4-isopropylsulfonylphenyl)-5H-pyrrolo[2,3-b]pyrazine], under 7.30; to `CC(C)S(=O)(=O)c1ccc(-c2cnc3[nH]cc(-c4csc(C(=O)O)c4)c3n2)cc1` [Compound I-64, 4-[2-(4-isopropylsulfonylphenyl)-5H-pyrrolo[2,3-b]pyrazin-7-yl]thiophene-2-carboxylic acid], at least 8.00.
As to `CC(C)S(=O)(=O)c1ccc(-c2cnc3[nH]cc(-c4cccc5cnccc45)c3n2)cc1` [Compound I-41, 5-[2-(4-isopropylsulfonylphenyl)-5H-pyrrolo[2,3-b]pyrazin-7-yl]isoquinoline], the pKi is under 7.30.
Next, `CC(C)S(=O)(=O)c1ccc(-c2cnc3[nH]cc(-c4cc5cc(Br)ccc5s4)c3n2)cc1` [Compound I-54, 7-(5-bromobenzothiophen-2-yl)-2-(4-isopropylsulfonylphenyl)-5H-pyrrolo[2,3-b]pyrazine]: under 7.30.
Next, `CC(C)S(=O)(=O)c1ccc(-c2cnc3[nH]cc(-c4ccc(OCCCN(C)C)nc4)c3n2)cc1` [Compound I-11, 3[[5-[2-(4-isopropylsulfonylphenyl)-5H-pyrrolo[2,3-b]pyrazin-7-yl]-2-pyridyl]oxy]-N,N-dimethyl-propan-1-amine]: under 7.30; `COc1cc(-c2c[nH]c3ncc(-c4ccc(S(=O)(=O)C(C)C)cc4)nc23)c(F)cn1` [Compound I-39, 7-(5-fluoro-2-methoxy-4-pyridyl)-2-(4-isopropylsulfonylphenyl)-5H-pyrrolo[2,3-b]pyrazine]: under 7.30; `CC(C)S(=O)(=O)c1ccc(-c2cnc3[nH]cc(-c4cnc5[nH]ccc5c4)c3n2)cc1` [Compound I-6, 2-(4-isopropylsulfonylphenyl)-7-(1H-pyrrolo[2,3-b]pyridin-5-yl)-5H-pyrrolo[2,3-b]pyrazine]: at least 8.00.
On to `CC(C)S(=O)(=O)c1ccc(-c2cnc3[nH]cc(-c4ccc(F)nc4)c3n2)cc1` [Compound I-23, 7-(6-fluoro-3-pyridyl)-2-(4-isopropylsulfonylphenyl)-5H-pyrrolo[2,3-b]pyrazine], for which the pKi was 7.30 to 8.00.
To `CC(C)S(=O)(=O)c1ccc(-c2cnc3[nH]cc(-c4ccccc4)c3n2)cc1` [Compound I-5, 2-(4-isopropylsulfonylphenyl)-7-phenyl-5H-pyrrolo[2,3-b]pyrazine] belongs under 7.30.
Next, `CC(C)S(=O)(=O)c1ccc(-c2cnc3[nH]cc(-c4ccnc5ccccc45)c3n2)cc1` [Compound I-43, 4-[2-(4-isopropylsulfonylphenyl)-5H-pyrrolo[2,3-b]pyrazin-7-yl]quinoline]: under 7.30; `CC(C)S(=O)(=O)c1ccc(-c2cnc3[nH]cc(-c4cncc(S(C)(=O)=O)c4)c3n2)cc1` [Compound I-48, 2-(4-isopropylsulfonylphenyl)-7-(5-methylsulfonyl-3-pyridyl)-5H-pyrrolo[2,3-b]pyrazine]: 7.30 to 8.00.
Next, `CC(C)S(=O)(=O)c1ccc(-c2cnc3[nH]cc(-c4ccccc4C#N)c3n2)cc1` [Compound I-8, 2-[2-(4-isopropylsulfonylphenyl)-5H-pyrrolo[2,3-b]pyrazin-7-yl]benzonitrile]: under 7.30.
Take `COc1ccc2c(c1)cc(-c1c[nH]c3ncc(-c4ccc(S(=O)(=O)C(C)C)cc4)nc13)n2C(=O)OC(C)(C)C` [Compound I-57, tert-butyl 2-[2-(4-isopropylsulfonylphenyl)-5H-pyrrolo[2,3-b]pyrazin-7-yl]-5-methoxy-indole-1-carboxylate]: the negative logarithm of the Ki (pKi) is under 7.30.
To `CCn1cc(-c2c[nH]c3ncc(-c4ccc(S(=O)(=O)C(C)C)cc4)nc23)cn1` [Compound I-7, 7-(1-ethylpyrazol-4-yl)-2-(4-isopropylsulfonylphenyl)-5H-pyrrolo[2,3-b]pyrazine] belongs under 7.30.
Next, `CC(C)S(=O)(=O)c1ccc(-c2cnc3[nH]cc(-c4cc5c(Cl)cccc5n4C(=O)OC(C)(C)C)c3n2)cc1` [Compound I-58, tert-butyl 4-chloro-2-[2-(4-isopropylsulfonylphenyl)-5H-pyrrolo[2,3-b]pyrazin-7-yl]indole-1-carboxylate]: under 7.30.
In the case of `Cc1cscc1-c1c[nH]c2ncc(-c3ccc(S(=O)(=O)C(C)C)cc3)nc12` [Compound I-27, 2-(4-isopropylsulfonylphenyl)-7-(4-methyl-3-thienyl)-5H-pyrrolo[2,3-b]pyrazine], the pKi is under 7.30.
Next, `CC(C)S(=O)(=O)c1ccc(-c2cnc3[nH]cc(-c4cc(O[C@H](C)c5ccccc5Cl)c(C(=O)O)s4)c3n2)cc1` [Compound I-70, 3-[(1R)-1-(2-chlorophenyl)ethoxy]-5-[2-(4-isopropylsulfonylphenyl)-5H-pyrrolo[2,3-b]pyrazin-7-yl]thiophene-2-carboxylic acid]: at least 8.00; `CC(C)S(=O)(=O)c1ccc(-c2cnc3[nH]cc(-c4ccc(-c5nnn[nH]5)cc4)c3n2)cc1` [Compound I-67, 2-(4-isopropylsulfonylphenyl)-7-[4-(1H-tetrazol-5-yl)phenyl]-5H-pyrrolo[2,3-b]pyrazine]: under 7.30; `Cc1noc(C)c1-c1c[nH]c2ncc(-c3ccc(S(=O)(=O)C(C)C)cc3)nc12` [Compound I-25, 4-[2-(4-isopropylsulfonylphenyl)-5H-pyrrolo[2,3-b]pyrazin-7-yl]-3,5-dimethyl-isoxazole]: under 7.30.
Next, `Cc1n[nH]c(C)c1-c1c[nH]c2ncc(-c3ccc(S(=O)(=O)C(C)C)cc3)nc12` [Compound I-52, 7-(3,5-dimethyl-1H-pyrazol-4-yl)-2-(4-isopropylsulfonylphenyl)-5H-pyrrolo[2,3-b]pyrazine]: under 7.30; `CC(Oc1cc(-c2c[nH]c3ncc(-c4ccc(S(=O)(=O)C(C)C)cc4)nc23)sc1C(=O)O)c1ccccc1Cl` (centres unmarked) [Compound I-69, 3-[1-(2-chlorophenyl)ethoxy]-5-[2-(4-isopropylsulfonylphenyl)-5H-pyrrolo[2,3-b]pyrazin-7-yl]thiophene-2-carboxylic acid]: at least 8.00; `CC(C)S(=O)(=O)c1ccc(-c2cnc3[nH]cc(-c4cnc(N)cn4)c3n2)cc1` [Compound I-9, 5-[2-(4-isopropylsulfonylphenyl)-5H-pyrrolo[2,3-b]pyrazin-7-yl]pyrazin-2-amine]: under 7.30.
Next, `CC(C)S(=O)(=O)c1ccc(-c2cnc3[nH]cc(-c4ccc(C(=O)O)s4)c3n2)cc1` [Compound I-62, 5-[2-(4-isopropylsulfonylphenyl)-5H-pyrrolo[2,3-b]pyrazin-7-yl]thiophene-2-carboxylic acid]: at least 8.00; `Cc1ccc(-c2c[nH]c3ncc(-c4ccc(S(=O)(=O)C(C)C)cc4)nc23)cn1` [Compound I-51, 2-(4-isopropylsulfonylphenyl)-7-(6-methyl-3-pyridyl)-5H-pyrrolo[2,3-b]pyrazine]: 7.30 to 8.00.
